Patent US20060293307A1, “Oxazolidinone derivatives as antimicrobials” (priority 2002, published 2006)
Converted amounts (≈) assume the structure as drawn. Where two headings read alike, the source gives them in different places.

Columns and labels:
Test in all cases: MIC, agar incorporation method
E. coli 25922 = type: cell-based; details: S. No. 25, E. coli 25922
S. aureus ATCC29213 = type: cell-based, Staphylococcus aureus; details: S. No. 2, S. aureus ATCC29213
[1] = tested on: S. epidermidis (MRSE)32965; type: cell-based, Staphylococcus epidermidis; details: S. No. 13, S. epidermidis (MRSE)32965
P. aeruginosa ATCC 27853 = type: cell-based; details: S. No. 28, P. aeruginosa ATCC 27853
E. faecium 6A (VRE) = type: cell-based, Enterococcus faecium; details: S. No. 21, E. faecium 6A (VRE)
Moraxella M1 = type: cell-based; details: S. No. 58, Moraxella M1
S. epidermidis 823 = type: cell-based, Staphylococcus epidermidis; details: S. No. 12, S. epidermidis 823
Moraxella cata. M2 = type: cell-based; details: S. No. 59, Moraxella cata. M2
S. pneumoniae AB 10 = type: cell-based, Streptococcus pneumoniae; details: S. No. 35, S. pneumoniae AB 10
S. pneumoniae AB4 = type: cell-based, Streptococcus pneumoniae; details: S. No. 33, S. pneumoniae AB4
E. durans 581 = type: cell-based; details: S. No. 24, E. durans 581
S. pneumoniae AB 22 = type: cell-based, Streptococcus pneumoniae; details: S. No. 42, S. pneumoniae AB 22
S. pneumoniae AB 21 = type: cell-based, Streptococcus pneumoniae; details: S. No. 41, S. pneumoniae AB 21
[2] = tested on: S. epidermidis (MRSE) 23760; type: cell-based, Staphylococcus epidermidis; details: S. No. 11, S. epidermidis (MRSE) 23760
Salmonella 205 = type: cell-based; details: S. No. 26, Salmonella 205
Description: The compounds of the invention display antibacterial activity when tested by the agar incorporation method. The following minimum inhibitory concentrations (μg/ml) were obtained for representative compounds of the invention which are given below in the following tables.
Briefly, the compounds were dissolved in DMSO and doubling dilution of the compounds were incorporated into Meer Hilton agar before solidification. Inoculum was prepared by suspending 4 to 5 colonies into 5 ml of normal saline solution and adjusting the turbidity to 0.5 Macfarland turbidity standard tables (1.5×10^8 CFU/ml), after appropriate dilutions, 10^4 CFU/spot was transfered into the surface of dried plate and incubated for 18 hours (24 hours for MRSN studies). The concentration showing no growth of the inoculated culture was recorded as the MIC. Appropriate ATCC standard strains were simultaneously tested and result recorded only when the MIC's against standard antibiotics were within the acceptable range.

E. faecalis 29212 = type: cell-based; details: S. No. 17, E. faecalis 29212
(MRSA) 562 = type: cell-based, Staphylococcus aureus; details: S. No. 8, (MRSA) 562
S. pneumoniae 1275 = type: cell-based, Streptococcus pneumoniae; details: S. No. 57, S. pneumoniae 1275
S. pneumoniae AB 25 = type: cell-based, Streptococcus pneumoniae; details: S. No. 45, S. pneumoniae AB 25
S. pneumoniae 1251 = type: cell-based, Streptococcus pneumoniae; details: S. No. 54, S. pneumoniae 1251
S. pneumoniae AB-2 = type: cell-based, Streptococcus pneumoniae; details: S. No. 31, S. pneumoniae AB-2
S. pneumoniae AB 29 = type: cell-based, Streptococcus pneumoniae; details: S. No. 46, S. pneumoniae AB 29
S. pneumoniae ATCC 6303 = type: cell-based, Streptococcus pneumoniae; details: S. No. 50, S. pneumoniae ATCC 6303
S. pneumoniae AB 30 = type: cell-based, Streptococcus pneumoniae; details: S. No. 47, S. pneumoniae AB 30
[3] = tested on: Serratia marcescens 12999; type: cell-based; details: S. No. 29, Serratia marcescens 12999
S. pneumoniae 217 = type: cell-based, Streptococcus pneumoniae; details: S. No. 38, S. pneumoniae 217
S. pneumoniae AB 34 = type: cell-based, Streptococcus pneumoniae; details: S. No. 49, S. pneumoniae AB 34
[4] = tested on: S. epidermidis ATCC 12228; type: cell-based, Staphylococcus epidermidis; details: S. No. 10, S. epidermidis ATCC 12228
S. aureus (MRSA) 15187 = type: cell-based, Staphylococcus aureus; details: S. No. 4, S. aureus (MRSA) 15187
S. pneumoniae AB 16 = type: cell-based, Streptococcus pneumoniae; details: S. No. 39, S. pneumoniae AB 16
S. pyogenes 20361 = type: cell-based, Streptococcus pyogenes; details: S. No. 53, S. pyogenes 20361
S pneumoniae 1294. = type: cell-based, Streptococcus pneumoniae; details: S. No. 55, S pneumoniae 1294.
[5] = Staphylococcus aureus, read-out: MIC
[6] = Staphylococcus epidermidis, read-out: MIC
[7] = Streptococcus pneumoniae, read-out: MIC

SMILES: O=C(NC[C@H]1CN(c2ccc(N3CCN(c4ccc([N+](=O)[O-])s4)CC3)c(F)c2)C(=O)O1)C(Cl)Cl [compound 9, (S)—N-[[3-[-3-Fluoro-4-[N-1-(5-nitro-2-thienyl)-piperazinyl]phenyl] -2-oxo-5-oxazolidinyl]methyl]dichloroacetamide]
- MIC (E. coli 25922): >8 µg/mL
- MIC (S. aureus ATCC29213): 2 µg/mL (≈ 3.76 µM)
- MIC [1]: 0.5 µg/mL (≈ 0.939 µM)
- MIC (P. aeruginosa ATCC 27853): >8 µg/mL
- MIC (E. faecium 6A (VRE)): 0.5 µg/mL (≈ 0.939 µM)
- MIC (Moraxella M1): 1 µg/mL (≈ 1.88 µM)
- MIC (S. epidermidis 823): 0.5 µg/mL (≈ 0.939 µM)
- MIC (Moraxella cata. M2): 1 µg/mL (≈ 1.88 µM)
- MIC (S. pneumoniae AB 10): 0.25 µg/mL (≈ 0.47 µM)
- MIC (S. pneumoniae AB4): 0.25 µg/mL (≈ 0.47 µM)
- MIC (E. durans 581): 0.5 µg/mL (≈ 0.939 µM)
- MIC (S. pneumoniae AB 22): 0.25 µg/mL (≈ 0.47 µM)
- MIC (S. pneumoniae AB 21): 0.25 µg/mL (≈ 0.47 µM)
- MIC [2]: 0.5 µg/mL (≈ 0.939 µM)
- MIC (Salmonella 205): >8 µg/mL
- MIC (E. faecalis 29212): 1 µg/mL (≈ 1.88 µM)
- MIC ((MRSA) 562): 1 µg/mL (≈ 1.88 µM)
- MIC (S. pneumoniae 1275): 0.25 µg/mL (≈ 0.47 µM)
- MIC (S. pneumoniae AB 25): 0.25 µg/mL (≈ 0.47 µM)
- MIC (S. pneumoniae 1251): 0.25 µg/mL (≈ 0.47 µM)
- MIC (S. pneumoniae AB-2): 0.25 µg/mL (≈ 0.47 µM)
- MIC (S. pneumoniae AB 29): 0.25 µg/mL (≈ 0.47 µM)
- MIC (S. pneumoniae ATCC 6303): 0.25 µg/mL (≈ 0.47 µM)
- MIC (S. pneumoniae AB 30): 0.25 µg/mL (≈ 0.47 µM)
- MIC [3]: >8 µg/mL
- MIC (S. pneumoniae 217): 0.25 µg/mL (≈ 0.47 µM)
- MIC (S. pneumoniae AB 34): 0.5 µg/mL (≈ 0.939 µM)
- MIC [4]: 0.25 µg/mL (≈ 0.47 µM)
- MIC (S. aureus (MRSA) 15187): 1 µg/mL (≈ 1.88 µM)
- MIC (S. pneumoniae AB 16): 0.25 µg/mL (≈ 0.47 µM)
- MIC (S. pyogenes 20361): 0.5 µg/mL (≈ 0.939 µM)
- MIC (S pneumoniae 1294.): 0.5 µg/mL (≈ 0.939 µM)

SMILES: CC(=O)NC[C@H]1CN(c2ccc(N3CCN(c4ccc([N+](=O)[O-])o4)CC3)c(F)c2)C(=O)O1 [Compound No. 4, (S)—N-[[3-[3-Fluoro-4-[4-(5-nitro-2-furyl)-1-piperazinyl]phenyl]-2-oxo-5-oxazolidinyl]methyl]acetamide]
- MIC (E. coli 25922; Escherichia coli, read-out: MIC): > 16 µg/mL
- MIC (S. aureus ATCC29213; [5]): 16 µg/mL (≈ 35.8 µM)
- MIC [1, 6]: 4 µg/mL (≈ 8.94 µM)
- MIC (P. aeruginosa ATCC 27853; Pseudomonas aeruginosa, ATCC27853, read-out: MIC): > 16 µg/mL
- MIC (E. faecium 6A (VRE); Enterococcus faecium, read-out: MIC): 8 µg/mL (≈ 17.9 µM)
- MIC (Moraxella M1; read-out: MIC): > 16 µg/mL
- MIC (S. epidermidis 823; [6]): 4 µg/mL (≈ 8.94 µM)
- MIC (Moraxella cata. M2; read-out: MIC): > 16 µg/mL
- MIC (S. pneumoniae AB 10; Streptococcus pneumoniae, AB10, read-out: MIC): 4 µg/mL (≈ 8.94 µM)
- MIC (S. pneumoniae AB4; [7]): 8 µg/mL (≈ 17.9 µM)
- MIC (E. durans 581; Enterococcus durans, read-out: MIC): 4 µg/mL (≈ 8.94 µM)
- MIC (S. pneumoniae AB 22; Streptococcus pneumoniae, AB22, read-out: MIC): 8 µg/mL (≈ 17.9 µM)
- MIC (S. pneumoniae AB 21; Streptococcus pneumoniae, AB21, read-out: MIC): 8 µg/mL (≈ 17.9 µM)
- MIC [2, 6]: 4 µg/mL (≈ 8.94 µM)
- MIC (Salmonella 205; read-out: MIC): > 16 µg/mL
- MIC (E. faecalis 29212; Enterococcus faecalis, read-out: MIC): 8 µg/mL (≈ 17.9 µM)
- MIC ((MRSA) 562; [5]): 16 µg/mL (≈ 35.8 µM)
- MIC (S. pneumoniae 1275; [7]): 2 µg/mL (≈ 4.47 µM)
- MIC (S. pneumoniae AB 25; Streptococcus pneumoniae, AB25, read-out: MIC): 4 µg/mL (≈ 8.94 µM)
- MIC (S. pneumoniae 1251; [7]): 4 µg/mL (≈ 8.94 µM)
- MIC (S. pneumoniae AB-2; Streptococcus pneumoniae, AB2, read-out: MIC): 8 µg/mL (≈ 17.9 µM)
- MIC (S. pneumoniae AB 29; Streptococcus pneumoniae, AB29, read-out: MIC): 4 µg/mL (≈ 8.94 µM)
- MIC (S. pneumoniae ATCC 6303; Streptococcus pneumoniae, ATCC6303, read-out: MIC): 4 µg/mL (≈ 8.94 µM)
- MIC (S. pneumoniae AB 30; Streptococcus pneumoniae, AB30, read-out: MIC): 4 µg/mL (≈ 8.94 µM)
- MIC ([3]; read-out: MIC): > 16 µg/mL
- MIC (S. pneumoniae 217; [7]): 4 µg/mL (≈ 8.94 µM)
- MIC (S. pneumoniae AB 34; Streptococcus pneumoniae, AB34, read-out: MIC): 4 µg/mL (≈ 8.94 µM)
- MIC ([4]; Staphylococcus epidermidis, ATCC12228, read-out: MIC): 4 µg/mL (≈ 8.94 µM)
- MIC (S. aureus (MRSA) 15187; [5]): 8 µg/mL (≈ 17.9 µM)
- MIC (S. pneumoniae AB 16; Streptococcus pneumoniae, AB16, read-out: MIC): 8 µg/mL (≈ 17.9 µM)
- MIC (S. pyogenes 20361; Streptococcus pyogenes, read-out: MIC): 4 µg/mL (≈ 8.94 µM)
- MIC (S pneumoniae 1294.; [7]): 8 µg/mL (≈ 17.9 µM)
